# From PubChem BioAssay (NCI)
# Values joined by “and” are separate entries in the source; they are usually repeats but may differ in a detail not shown here. Equal entries are not always repeated.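 How tested: cells in 96-well plates exposed to compound for 48 hours at five concentrations. Abbreviation: GI50, concentration required for 50% inhibition of growth. TGI is the concentration that stops growth completely.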
# Legend:
# Test in all cases: growth of human tumour cells (NCI), 48 h
# DU-145 prostate = test system: DU-145 prostate
# SK-MEL-28 melanoma = test system: SK-MEL-28 melanoma
# OVCAR-5 ovarian = test system: OVCAR-5 ovarian
# NCI/ADR-RES ovarian = test system: NCI/ADR-RES ovarian
# MDA-N = test system: MDA-N
# NCI-H23 lung = test system: NCI-H23 lung
# TK-10 renal = test system: TK-10 renal
# MCF7 breast = test system: MCF7 breast
# CAKI-1 renal = test system: CAKI-1 renal
# EKVX NSCLC = test system: EKVX NSCLC
# OVCAR-3 ovarian = test system: OVCAR-3 ovarian
# A549 NSCLC = test system: A549 NSCLC
# SNB-19 CNS = test system: SNB-19 CNS
# SK-MEL-5 melanoma = test system: SK-MEL-5 melanoma
# BT-549 breast = test system: BT-549 breast
# SR leukemia = test system: SR leukemia
# UACC-257 melanoma = test system: UACC-257 melanoma
# HL-60(TB) leukemia = test system: HL-60(TB) leukemia
# RPMI-8226 leukemia = test system: RPMI-8226 leukemia
# ACHN renal = test system: ACHN renal
# OVCAR-8 ovarian = test system: OVCAR-8 ovarian
# CCRF-CEM leukemia = test system: CCRF-CEM leukemia
# K-562 leukemia = test system: K-562 leukemia
# U251 CNS = test system: U251 CNS
# PC-3 prostate = test system: PC-3 prostate
# MDA-MB-435 = test system: MDA-MB-435
# MALME-3M melanoma = test system: MALME-3M melanoma
# COLO 205 colon = test system: COLO 205 colon
# 786-0 renal = test system: 786-0 renal
# SN12C renal = test system: SN12C renal
# LOX IMVI melanoma = test system: LOX IMVI melanoma
# SK-MEL-2 melanoma = test system: SK-MEL-2 melanoma
# KM12 colon = test system: KM12 colon
# M14 melanoma = test system: M14 melanoma
# HCT-116 colon = test system: HCT-116 colon
# OVCAR-4 ovarian = test system: OVCAR-4 ovarian
# SF-295 CNS = test system: SF-295 CNS
# UO-31 renal = test system: UO-31 renal
# HT29 colon = test system: HT29 colon
# MOLT-4 leukemia = test system: MOLT-4 leukemia
# HOP-62 NSCLC = test system: HOP-62 NSCLC
# HCT-15 colon = test system: HCT-15 colon
# HCC-2998 colon = test system: HCC-2998 colon
# NCI-H460 lung = test system: NCI-H460 lung
# HS 578T breast = test system: HS 578T breast
# A498 renal = test system: A498 renal
# NCI-H522 lung = test system: NCI-H522 lung
# UACC-62 melanoma = test system: UACC-62 melanoma
# HOP-92 NSCLC = test system: HOP-92 NSCLC
# T-47D breast = test system: T-47D breast
# MDA-MB-231 breast = test system: MDA-MB-231 breast
# SK-OV-3 ovarian = test system: SK-OV-3 ovarian
# SF-268 CNS = test system: SF-268 CNS
# SW-620 colon = test system: SW-620 colon
# RXF 393 renal = test system: RXF 393 renal
# IGROV1 ovarian = test system: IGROV1 ovarian
# SNB-75 CNS = test system: SNB-75 CNS
# SF-539 CNS = test system: SF-539 CNS
# NCI-H226 lung = test system: NCI-H226 lung
structure (smiles),measurement,setting,value
O=C(c1ccc2ccccc2c1)C1S(=O)(=O)OCCOS1(=O)=O,TGI,DU-145 prostate,> 100000 nM
same,TGI,SK-MEL-28 melanoma,> 100000 nM
same,TGI,OVCAR-5 ovarian,> 100000 nM
same,TGI,NCI/ADR-RES ovarian,> 100000 nM
same,TGI,MDA-N,> 100000 nM
same,TGI,NCI-H23 lung,> 100000 nM
same,TGI,TK-10 renal,> 100000 nM
same,TGI,MCF7 breast,> 100000 nM
same,TGI,CAKI-1 renal,> 100000 nM
same,TGI,EKVX NSCLC,> 100000 nM
same,TGI,OVCAR-3 ovarian,> 100000 nM
same,TGI,A549 NSCLC,> 100000 nM
same,TGI,SNB-19 CNS,> 100000 nM
same,TGI,SK-MEL-5 melanoma,> 100000 nM
same,TGI,BT-549 breast,> 100000 nM
same,TGI,SR leukemia,> 100000 nM
same,TGI,UACC-257 melanoma,> 100000 nM
same,TGI,HL-60(TB) leukemia,> 100000 nM
same,TGI,RPMI-8226 leukemia,> 100000 nM
same,TGI,ACHN renal,> 100000 nM
same,TGI,OVCAR-8 ovarian,> 100000 nM
same,TGI,CCRF-CEM leukemia,> 100000 nM
same,TGI,K-562 leukemia,> 100000 nM
same,TGI,U251 CNS,> 100000 nM
same,TGI,PC-3 prostate,> 100000 nM
same,TGI,MDA-MB-435,> 100000 nM
same,TGI,MALME-3M melanoma,> 100000 nM
same,TGI,COLO 205 colon,> 100000 nM
same,TGI,786-0 renal,> 100000 nM
same,TGI,SN12C renal,> 100000 nM
same,TGI,LOX IMVI melanoma,> 100000 nM
same,TGI,SK-MEL-2 melanoma,> 100000 nM
same,TGI,KM12 colon,> 100000 nM
same,TGI,M14 melanoma,> 100000 nM
same,TGI,HCT-116 colon,> 100000 nM
same,TGI,OVCAR-4 ovarian,> 100000 nM
same,TGI,SF-295 CNS,> 100000 nM
same,TGI,UO-31 renal,> 100000 nM
same,TGI,HT29 colon,> 100000 nM
same,TGI,MOLT-4 leukemia,> 100000 nM
same,TGI,HOP-62 NSCLC,> 100000 nM
same,TGI,HCT-15 colon,> 100000 nM
same,TGI,HCC-2998 colon,> 100000 nM
same,TGI,NCI-H460 lung,> 100000 nM
C[C@]12O[C@H](C[C@]1(O)CO)n1c3ccccc3c3c4c(c5c6ccccc6n2c5c31)CNC4=O,GI50,DU-145 prostate,88.1 nM and 110 nM
same,TGI,DU-145 prostate,> 10000 nM and 10200 nM
same,GI50,SK-MEL-28 melanoma,85.1 nM and 85.4 nM
same,TGI,SK-MEL-28 melanoma,1120 nM and 1360 nM
same,GI50,OVCAR-5 ovarian,114 nM
same,TGI,OVCAR-5 ovarian,> 10000 nM and 4790 nM
same,GI50,NCI/ADR-RES ovarian,870 nM and 1370 nM
same,TGI,NCI/ADR-RES ovarian,5150 nM and 7260 nM
same,GI50,HS 578T breast,178 nM and 239 nM
same,TGI,HS 578T breast,3010 nM and 3610 nM
same,GI50,A498 renal,13 nM and 14.8 nM
same,TGI,A498 renal,114 nM and 94.3 nM
same,GI50,NCI-H23 lung,84.3 nM and 189 nM
same,TGI,NCI-H23 lung,2320 nM and 2630 nM
same,GI50,NCI-H522 lung,37.4 nM and 135 nM
same,TGI,NCI-H522 lung,1500 nM and 2060 nM
same,GI50,TK-10 renal,22.3 nM and 18.9 nM
same,TGI,TK-10 renal,1070 nM and 744 nM
same,GI50,MCF7 breast,77.4 nM and 60.5 nM
same,TGI,MCF7 breast,3410 nM and 1920 nM
same,GI50,CAKI-1 renal,5.82 nM and < 16.9 nM
same,GI50,UACC-62 melanoma,36.6 nM and 40.2 nM
same,TGI,UACC-62 melanoma,1300 nM and 1150 nM
same,GI50,HOP-92 NSCLC,42.2 nM and 174 nM
same,TGI,HOP-92 NSCLC,650 nM and 1160 nM
same,GI50,EKVX NSCLC,1560 nM
same,TGI,EKVX NSCLC,> 9150 nM
same,GI50,OVCAR-3 ovarian,370 nM and 391 nM
same,TGI,OVCAR-3 ovarian,3310 nM and 2760 nM
same,GI50,A549 NSCLC,176 nM and 191 nM
same,TGI,A549 NSCLC,> 6090 nM and 3500 nM
same,GI50,T-47D breast,79.1 nM and 337 nM
same,TGI,T-47D breast,1550 nM and 2160 nM
same,GI50,SNB-19 CNS,546 nM and 544 nM
same,TGI,SNB-19 CNS,4080 nM and 3220 nM
same,GI50,SK-MEL-5 melanoma,398 nM and 86.9 nM
same,TGI,SK-MEL-5 melanoma,2060 nM and 1840 nM
same,GI50,MDA-MB-231 breast,126 nM and 151 nM
same,TGI,MDA-MB-231 breast,2820 nM and 3000 nM
same,GI50,BT-549 breast,203 nM and 288 nM
same,TGI,BT-549 breast,1450 nM and 1810 nM
same,GI50,SR leukemia,20.3 nM and 22 nM
same,TGI,SR leukemia,474 nM and 240 nM
same,GI50,UACC-257 melanoma,250 nM and 366 nM
same,TGI,UACC-257 melanoma,2570 nM and 2460 nM
same,GI50,HL-60(TB) leukemia,233 nM and 92.8 nM
same,TGI,HL-60(TB) leukemia,> 2310 nM and 1230 nM
same,GI50,RPMI-8226 leukemia,134 nM and 215 nM
same,TGI,RPMI-8226 leukemia,1600 nM and 1750 nM
same,GI50,ACHN renal,22.2 nM and 16.8 nM
same,TGI,ACHN renal,> 6500 nM and 3130 nM
same,GI50,OVCAR-8 ovarian,367 nM and 391 nM
same,TGI,OVCAR-8 ovarian,> 5350 nM and 6530 nM
same,GI50,CCRF-CEM leukemia,50.1 nM and 46.1 nM
same,GI50,SK-OV-3 ovarian,18.3 nM and 21.4 nM
same,TGI,SK-OV-3 ovarian,146 nM and 521 nM
same,GI50,SF-268 CNS,209 nM and 222 nM
same,TGI,SF-268 CNS,2560 nM and 2860 nM
same,TGI,K-562 leukemia,> 100000 nM
same,GI50,U251 CNS,808 nM and 523 nM
same,TGI,U251 CNS,3580 nM and 2950 nM
same,GI50,PC-3 prostate,84.6 nM and 133 nM
same,TGI,PC-3 prostate,> 5890 nM and 3900 nM
same,GI50,SW-620 colon,50 nM and 58.9 nM
same,TGI,SW-620 colon,> 10000 nM and 7840 nM
same,GI50,RXF 393 renal,38.5 nM and 18.9 nM
same,TGI,RXF 393 renal,622 nM and 649 nM
same,GI50,MDA-MB-435,44 nM and 37.1 nM
same,TGI,MDA-MB-435,3970 nM and 2010 nM
same,GI50,MALME-3M melanoma,32.4 nM and 29.8 nM
same,TGI,MALME-3M melanoma,1350 nM and 1270 nM
same,GI50,COLO 205 colon,91.6 nM and 129 nM
same,TGI,COLO 205 colon,500 nM and 870 nM
same,GI50,786-0 renal,197 nM and 213 nM
same,TGI,786-0 renal,1450 nM and 1890 nM
same,GI50,SN12C renal,38.2 nM and 29.3 nM
same,TGI,SN12C renal,2010 nM and 2350 nM
same,GI50,LOX IMVI melanoma,53.1 nM and 130 nM
same,TGI,LOX IMVI melanoma,1110 nM and 1290 nM
same,GI50,IGROV1 ovarian,51.4 nM and 111 nM
same,TGI,IGROV1 ovarian,3670 nM and 4900 nM
same,GI50,SK-MEL-2 melanoma,19.6 nM and < 11.7 nM
same,TGI,SK-MEL-2 melanoma,3730 nM and 1780 nM
same,GI50,KM12 colon,5.35 nM and < 10 nM
same,TGI,KM12 colon,1400 nM and 982 nM
same,GI50,M14 melanoma,15.9 nM and 29.7 nM
same,TGI,M14 melanoma,492 nM and 1970 nM
same,GI50,HCT-116 colon,29.1 nM and 40.8 nM
same,GI50,OVCAR-4 ovarian,891 nM and 1400 nM
same,TGI,OVCAR-4 ovarian,4990 nM and 7190 nM
same,GI50,SNB-75 CNS,49.2 nM and 85.2 nM
same,TGI,SNB-75 CNS,556 nM and 1300 nM
same,GI50,SF-539 CNS,114 nM and 84.6 nM
same,TGI,SF-539 CNS,889 nM and 540 nM
same,GI50,SF-295 CNS,171 nM and 101 nM
same,TGI,SF-295 CNS,2450 nM and 2020 nM
same,GI50,UO-31 renal,23.8 nM and 28.6 nM
same,TGI,UO-31 renal,1080 nM and 1290 nM
same,GI50,HT29 colon,166 nM and 138 nM
same,TGI,HT29 colon,3350 nM and 1380 nM
same,GI50,MOLT-4 leukemia,38.6 nM and 45.7 nM
same,TGI,MOLT-4 leukemia,451 nM and 1180 nM
same,GI50,HOP-62 NSCLC,49.9 nM and 66.4 nM
same,TGI,HOP-62 NSCLC,1250 nM and 1070 nM
same,GI50,HCT-15 colon,60.5 nM and 59.8 nM
same,TGI,HCT-15 colon,5910 nM and 9520 nM
same,GI50,HCC-2998 colon,330 nM and 237 nM
same,TGI,HCC-2998 colon,2500 nM and 2960 nM
same,GI50,NCI-H460 lung,110 nM and 120 nM
same,TGI,NCI-H460 lung,1630 nM and 1780 nM
same,GI50,NCI-H226 lung,267 nM and 272 nM
same,TGI,NCI-H226 lung,1790 nM and 2050 nM
